Results: publication PMC8161391, “Synthesis of Novel Fluorinated Xanthine Derivatives with High Adenosine A2B Receptor Binding Affinity” (Pharmaceuticals, 2021)
“And” between values parts separate entries of the source, which are not always exact repeats. Identical values can stand only once. Like-named read-outs stand apart in the source and are kept apart here. Each block holds one compound with its values, some of them ahead of it.

Assays:
[1] = biological target: human A2B; set-up: method as in PMID 16759111; details: determined versus [3H]ZM214385; read-out: Ki (human A2B) ± SEM; cited from earlier work
[2] = biological target: adenosine A2B receptor; details: cited from earlier work
[3] = cited from earlier work
[4] = set-up: method as in PMID 32366046; details: cited from earlier work
[5] = biological target: T1, human adenosine A2A receptor (Homo sapiens, UniProt P29274); experiment: Competition binding assay, A2A receptor, radioligand [3H]MSX-2; details: for Ki: human receptor, vs [3H]MSX-2, mean ± SEM of three experiments; for Selectivity Ratio Ki(Ax)/Ki(A2B) A2A/A2B: human receptors
T1 construct: host or cells: CHO or HEK cells (membrane preparations)
Protocol: (§1) For the two novel fluorinated xanthine derivatives, the binding affinity towards the adenosine receptor subtypes A2B, A2A, A1, and A3 was determined in competition binding assays by incubation of the appropriate standard radioligand with membrane preparations of Chinese hamster ovary (CHO) and human embryonic kidney (HEK) cells, respectively, expressing the corresponding human receptor subtype (Table 2).
(§2) Membrane preparations of recombinant CHO or HEK cells expressing the respective human adenosine receptor subtype were obtained according to Borrman et al. or purchased from Perkin Elmer (Waltham, MA, USA). Radioligand binding assays for human A1, A2A, A2B, and A3 receptors were performed according to Alnouri et al.. The following radioligands were employed: [^3H]2-chloro-N^6-cyclopentyladenosine ([^3H]CCPA, 1 nM) for the A1 receptor, [^3H]3-(3-hydroxypropyl)-7-methyl-8-(m-methoxystyryl)-1-propargylxanthine ([^3H]MSX-2, 1 nM) for the A2A receptor, [^3H]8-(4-[4-(4-chlorophenyl)piperazine-1-sulfonyl]phenyl)-1-propyl-2,3,6,7-tetrahydro-1H-purine-2,6-dione ([^3H]PSB-603, 0.3 nM) for the A2B receptor, and [^3H](R)-8-ethyl-4-methyl-2-(phenyl)1,4,7,8-tetrahydro-5H-imidazo[2,1-i]purin-5-one ([^3H]PSB-11, 1 nM) for the A3 receptor. Three separate experiments were performed for determination of Ki values. All data were analyzed with GraphPad Prism, version 4.1 (GraphPad Inc., La Jolla, CA).

[6] = biological target: T2, human adenosine A1 receptor (Homo sapiens, UniProt P30542); experiment: Competition binding assay, A1 receptor, radioligand [3H]CCPA; details: for Ki: vs [3H]CCPA, mean ± SEM of three experiments; for Selectivity Ratio Ki(Ax)/Ki(A2B) A1/A2B: human receptors
T2 construct: host or cells: CHO or HEK cells (membrane preparations)
T2 sequence (P30542 1-326): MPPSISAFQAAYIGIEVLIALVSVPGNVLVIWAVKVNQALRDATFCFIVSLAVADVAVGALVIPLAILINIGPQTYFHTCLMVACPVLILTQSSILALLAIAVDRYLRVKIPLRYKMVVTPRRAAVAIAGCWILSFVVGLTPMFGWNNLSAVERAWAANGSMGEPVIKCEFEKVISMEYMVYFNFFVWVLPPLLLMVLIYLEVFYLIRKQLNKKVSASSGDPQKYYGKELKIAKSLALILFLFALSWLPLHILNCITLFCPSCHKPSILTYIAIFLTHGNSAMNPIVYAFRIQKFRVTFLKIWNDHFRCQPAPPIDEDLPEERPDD
Protocol: as §1, §2

[7] = biological target: T3, human adenosine A3 receptor (Homo sapiens, UniProt P0DMS8); experiment: Competition binding assay, A3 receptor, radioligand [3H]PSB-11; details: for inhibition at 1 µM / Ki: human receptor; for inhibition at 1 µM: at a concentration of 1 µM; for Ki: vs [3H]PSB-11, mean ± SEM of three experiments; for Selectivity Ratio Ki(Ax)/Ki(A2B) A3/A2B: human receptors
T3 construct: host or cells: CHO or HEK cells (membrane preparations)
T3 sequence (P0DMS8 1-318): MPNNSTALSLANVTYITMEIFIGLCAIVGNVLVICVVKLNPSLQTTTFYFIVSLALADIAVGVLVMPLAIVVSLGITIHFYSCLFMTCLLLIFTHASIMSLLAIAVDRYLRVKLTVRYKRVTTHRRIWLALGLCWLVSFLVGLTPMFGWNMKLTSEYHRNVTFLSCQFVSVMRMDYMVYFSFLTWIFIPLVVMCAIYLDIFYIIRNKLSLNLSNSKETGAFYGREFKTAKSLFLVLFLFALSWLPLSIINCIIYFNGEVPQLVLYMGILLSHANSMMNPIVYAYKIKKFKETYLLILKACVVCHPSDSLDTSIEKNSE
Protocol: as §1, §2

[8] = biological target: T4, human adenosine A2B receptor (Homo sapiens, UniProt P29275); experiment: Competition binding assay, A2B receptor, radioligand [3H]PSB-603; details: vs [3H]PSB-603, mean ± SEM of three experiments
T4 construct: host or cells: CHO or HEK cells (membrane preparations)
T4 sequence (P29275 1-332): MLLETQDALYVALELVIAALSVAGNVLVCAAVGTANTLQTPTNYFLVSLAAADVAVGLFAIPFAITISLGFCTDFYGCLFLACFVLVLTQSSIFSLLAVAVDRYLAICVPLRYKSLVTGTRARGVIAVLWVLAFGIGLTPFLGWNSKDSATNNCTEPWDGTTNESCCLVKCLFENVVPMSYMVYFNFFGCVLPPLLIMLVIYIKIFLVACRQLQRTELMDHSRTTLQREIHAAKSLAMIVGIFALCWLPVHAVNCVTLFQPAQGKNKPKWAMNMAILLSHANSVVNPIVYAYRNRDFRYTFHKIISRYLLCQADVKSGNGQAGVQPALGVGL
Protocol: as §1, §2

[9] = biological target: adenosine A2A receptor; set-up: method as in PMID 19569717, PMID 30835463, PMID 16821798; details: rat brain cortical membranes; cited from earlier work
[10] = biological target: adenosine A1 receptor; set-up: method as in PMID 19569717, PMID 30835463, PMID 16821798; details: rat brain cortical membranes; cited from earlier work
[11] = system: adenosine A1 receptor; experiment: Receptor binding with adenosine-receptor-expressing rat brain cortical membranes, A1; details: rat A1 versus human A2B, from published Ki values
[12] = biological target: T3, human adenosine A3 receptor; set-up: method as in PMID 19569717, PMID 30835463, PMID 16821798; details: cited from earlier work; for % Inhibition of Radioligand Binding A3: at a concentration of 1 µM (as headed)
[13] = system: adenosine A2A receptor; experiment: Receptor binding with adenosine-receptor-expressing rat brain cortical membranes, A2A; details: rat A2A versus human A2B, from published Ki values
[14] = biological target: human A2B; details: determined versus [3H]ZM214385 or [125I]IABOPX; read-out: Ki (human A2B) ± SEM; cited from earlier work
[15] = biological target: T1, human adenosine A2A receptor; set-up: method as in PMID 19569717, PMID 30835463, PMID 16821798; details: cited from earlier work
[16] = biological target: T2, human adenosine A1 receptor; set-up: method as in PMID 19569717, PMID 30835463, PMID 16821798; details: cited from earlier work
[17] = Organ distribution of [3H]PSB-603 in mice; type: in vivo, CD-1 mice; details: 3 min p.i.
Protocol: To estimate the ability of [^3H]PSB-603 to penetrate the BBB in vivo, an initial biodistribution study in healthy CD1 mice was performed.
All animal studies followed the international guidelines on animal care, and the study protocols were approved by the Landesdirektion Leipzig, the local authority for animal care (Reg.-Nr.: TVV 08/13; Reference number: 24-9168.11/18/8; approval date: 12 June 2013). Animal experiments were performed with female CD-1 mice, 10–12 weeks old, obtained from the Experimental Centre of the Faculty of Medicine (MEZ) at the Leipzig University, Leipzig, Germany.
[^3H]PSB-603 (specific activity 2.92 TBq/mmol, Pharmaron formerly Quotient Bioresearch (Radiochemicals) Ltd, Cardiff, UK; the precursor was synthesized at the University of Bonn, Germany) was dissolved in 100 µL of sterile isotonic saline and administered as a bolus injection via the tail vein of the restrained animal. At 3 min (n = 3; dose: […]), retro-orbital blood samples were obtained from the anesthetized animals. Immediately afterwards, organs of interest were isolated and blood plasma was obtained by centrifugation of the whole blood sample (15,000 rpm, room temperature, 1 min). All samples were weighed and dissolved in SOLVABLE (PerkinElmer Life and Analytical Sciences, Rodgau, Germany) for 5 h at 50 °C, overnight at 30 °C, and a further 5 h at 50 °C. By adding H2O2, decolorization of the samples was achieved. The samples were left to cool down to room temperature before the addition of 15 mL of Ultima Gold cocktail (PerkinElmer Life and Analytical Sciences, Rodgau, Germany). The samples were shaken overnight, and the radioactivity was measured in a Beckman Liquid Scintillation Counter LS 6500 (Beckman Coulter, Fullerton, CA, USA). For each sample, the percentage of the injected dose was calculated and normalized according to the tissue weight (% ID/g tissue), followed by normalization according to the injected dose and the weight of the animal [(% ID/g tissue)/(100%/g animal)] to calculate the standardized uptake value (SUV) for each tissue.

[18] = at a concentration of 1 µM (as headed)

T1 sequence (P29274 whole entry): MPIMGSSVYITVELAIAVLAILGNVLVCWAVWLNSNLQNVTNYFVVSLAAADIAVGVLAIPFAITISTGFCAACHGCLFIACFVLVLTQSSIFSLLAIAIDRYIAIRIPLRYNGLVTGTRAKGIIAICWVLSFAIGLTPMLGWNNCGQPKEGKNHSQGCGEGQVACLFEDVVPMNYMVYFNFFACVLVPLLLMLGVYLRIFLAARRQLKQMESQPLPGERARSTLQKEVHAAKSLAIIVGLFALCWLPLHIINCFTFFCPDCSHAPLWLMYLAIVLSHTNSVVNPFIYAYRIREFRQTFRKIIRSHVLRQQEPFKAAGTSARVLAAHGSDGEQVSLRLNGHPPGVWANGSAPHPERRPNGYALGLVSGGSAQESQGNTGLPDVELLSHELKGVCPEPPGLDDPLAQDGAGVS

Compound: Cn1c(=O)c2[nH]c(-c3cnn(Cc4cccc(C(F)(F)F)c4)c3)nc2n(C)c1=O [CVT-6975]
Ki [1]: 1 nM

Compound: [11CH3]n1nc(-c2ccccc2)c(=O)n2c3ccccc3nc12 [Compound 1]
IC50 [2]: 210 ± 12.3 nM

Compound: O=C(Nc1cnc(-c2ccnc([18F])c2)c(-c2ccccc2F)n1)C1CC1 [Compound 2]
affinity towards the adenosine A2B receptor (in words) [2]: good affinity
metabolic degradation in vivo (in words) ([3]; metabolism studies in mice): rapid metabolic degradation

Compound: O=c1[nH]c(=O)c2cc(-c3ccnc([18F])c3)c(-c3ccco3)nc2[nH]1 [Compound 3]
brain uptake (in words) [4]: rather low
affinity towards the A2B receptor (in words) [2]: good affinity
in vivo stability (in words) ([3]; compared to 2): considerably improved in vivo stability

Ki [5]: 375 ± 53 nM
Selectivity Ratio Ki(Ax)/Ki(A2B) A2A/A2B [5]: 38
Ki ([6]; human receptor): 255 ± 32 nM
Selectivity Ratio Ki(Ax)/Ki(A2B) A1/A2B [6]: 25
inhibition at 1 µM [7]: 45%
Ki [7]: ~1000 nM
Ki [8]: 9.97 ± 0.86 nM
Compound: CCCn1c(=O)[nH]c2nc(-c3ccc(S(=O)(=O)Nc4ccnc(F)c4)cc3)[nH]c2c1=O [Compound 5, 4-(2,6-Dioxo-1-propyl-2,3,6,7-tetrahydro-1H-purin-8-yl)-N-(2-fluoropyridin-4-yl)benzenesulfonamide]

Ki [5]: 158 ± 28 nM
Selectivity Ratio Ki(Ax)/Ki(A2B) A2A/A2B [5]: 13
inhibition at 1 µM ([6]; human receptor, at a concentration of 1 µM): 44%
Ki ([6]; human receptor): ~1000 nM
Selectivity Ratio Ki(Ax)/Ki(A2B) A1/A2B [6]: 81
inhibition at 1 µM [7]: 38%
Ki [7]: > 1000 nM
Selectivity Ratio Ki(Ax)/Ki(A2B) A3/A2B [7]: >81
Ki [8]: 12.3 ± 3.6 nM
Compound: CCCn1c(=O)[nH]c2nc(-c3ccc(S(=O)(=O)N4CCC(F)CC4)cc3)[nH]c2c1=O [Compound 6, 8-(4-((4-Fluoropiperidin-1-yl)sulfonyl)phenyl)-1-propyl-3,7-dihydro-1H-purine-2,6-dione]

Compound: CCCn1c(=O)[nH]c2nc(-c3ccc(S(=O)(=O)Nc4ccccc4)cc3)[nH]c2c1=O [Compound 7]
Ki [9]: 23 ± 13 nM
Ki [10]: 1.8 ± 1 nM
Selectivity Ratio Ki(Ax)/Ki(A2B) A1/A2B [11]: 0.06
Selectivity Ratio Ki(Ax)/Ki(A2B) A3/A2B [7]: >32
% Inhibition of Radioligand Binding A3 [12]: 48%
Ki [12]: > 1000 nM
Selectivity Ratio Ki(Ax)/Ki(A2B) A2A/A2B [13]: 0.7

Selectivity Ratio Ki(Ax)/Ki(A2B) A1/A2B [11]: 4
Selectivity Ratio Ki(Ax)/Ki(A2B) A3/A2B [7]: 7
Selectivity Ratio Ki(Ax)/Ki(A2B) A2A/A2B [13]: 35
Compound: CCCn1c(=O)[nH]c2nc(-c3ccc(S(=O)(=O)N4CCCCC4)cc3)[nH]c2c1=O [Compound 8]
Ki [9]: 714 ± 122 nM
Ki [10]: 91.1 ± 25 nM

Compound: CCCn1c(=O)c2[nH]c(-c3ccc(OCC(=O)Nc4ccc(C#N)cc4)cc3)nc2n(CCC)c1=O [MRS-1754]
Ki [14]: 1.97 ± 0.31 nM

Selectivity Ratio Ki(Ax)/Ki(A2B) A2A/A2B [5]: >18,000
Selectivity Ratio Ki(Ax)/Ki(A2B) A1/A2B [6]: >18,000
Selectivity Ratio Ki(Ax)/Ki(A2B) A3/A2B [7]: >18,000
Compound: CCCn1c(=O)[nH]c2nc(-c3ccc(S(=O)(=O)N4CCN(c5ccc(Cl)cc5)CC4)cc3)[nH]c2c1=O [PSB-603, 8-(4-[4-(4-chlorophenyl)piperazine-1-sulfonyl]phenyl)-1-propyl-2,3,6,7-tetrahydro-1H-purine-2,6-dione]
% Inhibition of Radioligand Binding A2A [15, 18]: 7 ± 14%
Ki [15]: > 10000 nM
% Inhibition of Radioligand Binding A3 [12]: 10 ± 15%
Ki [12]: > 10000 nM
% Inhibition of Radioligand Binding A1 [16, 18]: 10 ± 3%
Ki [16]: > 10000 nM

uptake in the bladder, appendix, and lung ([17]; mice): low to moderate
uptake in the liver ([17]; mice): high
uptake in the pituitary gland ([17]; mice): moderate
standardized uptake value (SUV) in brain ([17]; mouse brain, i.v., n = 3): 0.21 ± 0.07 and 0.2
Compound: [^3H]8-(4-[4-(4-chlorophenyl)piperazine-1-sulfonyl]phenyl)-1-propyl-2,3,6,7-tetrahydro-1H-purine-2,6-dione [[^3H]PSB-603]
